{
  "source": "paper PMC10669220",
  "about": "“In Vitro α-Glucosidase and α-Amylase Inhibition, Cytotoxicity and Free Radical Scavenging Profiling of the 6-Halogeno and Mixed 6,8-Dihalogenated 2-Aryl-4-methyl-1,2-dihydroquinazoline 3-Oxides” (Antioxidants, 2023)",
  "key": {"[1]": {"biological_target": "superoxide dismutase (SOD)", "assay": "Superoxide dismutase (SOD) inhibitory assay (SOD assay kit-WST)", "type": "biochemical", "details": "duplicate; 1-50 µM; 25 °C, 30 min; read-out: IC50 SOD inhibition", "method": "The antioxidant activity of the compounds 3a, 3c, 3f, 3i, 3l, 3n and 3p against superoxide radicals was assessed via enzymatic assay in vitro using the SOD assay kit-WST according to the manufacturer’s instructions (Sigma-Aldrich®). The reaction mixtures in the SOD kit were combined with 20 μL of working solution of the samples in a 96-well plate. Plates were gently shaken and then incubated at 25 °C for 30 min. The reference positive control, diphenyleneiodonium (DPI), and the compounds were tested at 01, 5, 10, 25 and 50 µM in duplicates. The inhibition activity of SOD on the reaction of […] generated the superoxide with a tetrazolium salt, which was then determined by measuring the absorbance of the mixtures at a wavelength of 450 nm using an Elisa plate reader (Varioskan Flash, ThermoFisher Scientific, Vantaa, Finland). The SOD activity values obtained used to calculate the percentage of inhibition. % SOD activity=ODx− ODy/ODx ×100% where ODx is the absorbance of the blank (untreated SOD) and ODy is the absorbance of the sample (treated SOD). All tests were performed in duplicate."}, "[2]": {"system": "breast cancer (MCF-7) cell line", "assay": "MTT cytotoxicity assay, MCF-7", "details": "for Cell viability percentage, MCF-7: Table S2", "quoted_text": "(§1) Cells were cultured in sterile Dulbecco’s Minimal Essential Medium (DMEM, Gibco) supplemented with 10% fetal bovine serum (FBS) and 1% penicillin-streptomycin solution. […] Cell counting was carried out using a handheld automated cell counter (Scapter 3.0™, Merck, Burlington, MA, USA) and seeded (1 × 10^4 cells/well) into a 96-well plate. After 24 h, the cells were treated with different concentrations (1, 5, 10, 25 and 50 µM) of the test compounds and reference standards prepared in DMEM. The MTT solution (20 μL) prepared in PBS (5 mg/mL) was added to all the wells, and the plates were incubated for 4 h, followed by 1 h incubation with 100 µL of dimethyl sulfoxide (DMSO) to dissolve the formazan crystals. Untreated cells and 5% DMSO were included in the experiment as negative controls. All experiments were performed in triplicate. The plates were read at 570 nm at a reference wavelength of 630 nm using an ELISA plate reader (Varioskan Flash, ThermoFisher Scientific, Vantaa, Finland). The percentage of cell viability was calculated using the following formula, Cell viability %=At/Ab×100 where At represents the absorbance value of test compound and Ab the absorbance value of the blank. […] The data were expressed as means ± SD."}, "[3]": {"system": "nitric oxide synthase (NOS)", "assay": "Kinetic study on inhibitory activity of NOS", "type": "biochemical", "details": "seven concentrations 1-10.0 μM; Figure 3; read-out: IC50 NOS inhibition (kinetic study)", "method": "A nitric oxide synthase (NOS) assay was performed following the procedure recommended by the manufacturer as outlined in the screening kit (Catalogue No. EINO-100; EnzyChrom). Various concentrations (1, 2.5, 4.0, 5.5, 7.0, 8.5 and 10.0 µM) of the compounds 3i and the reference standard, DPI, were prepared. The enzyme solution (12.5 U/mL NOS, 10 uL), assay buffer (25 µL) and test samples (5 µL) were incubated at room temperature for 15 min. After pre-incubation, 10 µL of reaction mix was added and incubated at 37 °C for 60 min. A 200 µL quantity of NO detection reagent was added, the detection reaction was run at 37 °C for 60 min, and absorbance was determined at a wavelength of 540 nm using an Elisa plate reader (Varioskan Flash, ThermoFisher Scientific, Vantaa, Finland). The average of three readings was used to calculate the NOS percentage inhibition using the formula in Section 2.6.3"}, "[4]": {"biological_target": "T1, α-Glucosidase type 1 from baker's yeast (Saccharomyces cerevisiae, UniProt P53341)", "T1 construct": "purchased Sigma Aldrich (Pty) Ltd. G5003", "T1 sequence (P53341 whole entry)": "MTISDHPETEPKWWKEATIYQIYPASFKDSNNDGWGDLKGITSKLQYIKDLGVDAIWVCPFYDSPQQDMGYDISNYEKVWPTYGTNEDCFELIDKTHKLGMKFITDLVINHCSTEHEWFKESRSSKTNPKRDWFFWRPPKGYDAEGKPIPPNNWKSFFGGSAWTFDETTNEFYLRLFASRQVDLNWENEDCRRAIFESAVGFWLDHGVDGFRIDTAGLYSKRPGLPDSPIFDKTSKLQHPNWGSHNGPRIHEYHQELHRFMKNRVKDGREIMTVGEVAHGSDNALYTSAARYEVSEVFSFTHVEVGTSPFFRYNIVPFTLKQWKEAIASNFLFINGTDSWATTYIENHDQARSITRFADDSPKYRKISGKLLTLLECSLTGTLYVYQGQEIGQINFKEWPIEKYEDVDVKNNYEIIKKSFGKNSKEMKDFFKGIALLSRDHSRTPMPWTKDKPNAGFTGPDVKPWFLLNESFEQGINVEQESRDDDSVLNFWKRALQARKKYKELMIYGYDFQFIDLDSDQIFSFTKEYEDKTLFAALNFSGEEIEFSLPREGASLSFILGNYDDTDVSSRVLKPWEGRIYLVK", "assay": "biochemical", "details": "IC50 α-Glucosidase, mean ± SD, triplicate; tested at 1, 5, 10, 25, 50 µM"}, "[5]": {"system": "human embryonic kidney (HEK293-T) cell line", "assay": "MTT cytotoxicity assay, HEK293-T", "details": "Homo sapiens, HEK-293T, read-out: IC50 Hek293-T", "quoted_text": "as §1"}, "[6]": {"assay": "MTT cytotoxicity assay, HEK293-T", "details": "human, HEK293-T cells", "quoted_text": "as §1"}, "[7]": {"system": "lung cancer (A549) cell line", "assay": "MTT cytotoxicity assay, A549", "details": "for Cell viability percentage, A549: Table S3", "quoted_text": "as §1"}, "[8]": {"assay": "DPPH radical scavenging assay", "details": "mean ± SD; 45 min in the dark; 512 nm", "procedure,_shortened": "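Compounds (0–50 µM, in DMSO) were mixed with 0.20 mM DPPH in methanol and kept in the dark for 45 min, with absorbance read at 512 nm. IC50 values were obtained by nonlinear regression of triplicate averaged readings.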"}, "human α-amylase": {"biological_target": "T2, human α-amylase (Homo sapiens, UniProt P04746)", "T2 construct": "purchased Abcam ab283391", "T2 sequence (P04746 16-511)": "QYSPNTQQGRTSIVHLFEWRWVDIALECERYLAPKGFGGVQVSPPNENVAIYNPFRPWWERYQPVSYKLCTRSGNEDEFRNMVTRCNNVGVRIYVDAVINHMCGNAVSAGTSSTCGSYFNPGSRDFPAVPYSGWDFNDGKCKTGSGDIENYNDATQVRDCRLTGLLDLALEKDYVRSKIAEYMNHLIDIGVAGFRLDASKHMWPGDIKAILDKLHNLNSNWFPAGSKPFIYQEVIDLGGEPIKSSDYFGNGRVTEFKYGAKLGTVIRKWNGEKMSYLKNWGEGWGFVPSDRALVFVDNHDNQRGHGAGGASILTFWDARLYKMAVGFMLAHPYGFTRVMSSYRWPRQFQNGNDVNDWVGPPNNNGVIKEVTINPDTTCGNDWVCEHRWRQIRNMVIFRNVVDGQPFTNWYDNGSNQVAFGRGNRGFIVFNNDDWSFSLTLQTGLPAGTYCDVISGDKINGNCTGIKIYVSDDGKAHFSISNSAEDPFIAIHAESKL", "assay": "α-amylase inhibitor screening kit assay", "type": "biochemical", "details": "mean ± SD, triplicate; tested at 1, 5, 10, 25, 50 µM", "method": "The α-amylase assay was performed in triplicate, using a 96-well plate following the procedure recommended by the manufacturer as outlined in the α-amylase inhibitor Screening Kit (Catalogue No. ab283391; Abcam). […] The average values obtained from the absorbance readings were used to determine the IC50 and standard deviation values in GraphPad prism from nonlinear regression dose–response curves."}},
  "data": [
    {"smiles": "CC1=[N+]([O-])C(c2ccccc2)Nc2c(I)cc(Br)cc21", "note": "(stereo not drawn) [Compound 3i]", "values": [
      {"measurement": "IC50", "setting": "[1]", "result": "15 ± 0.14", "unit": "µM"},
      {"measurement": "Cell viability percentage, MCF-7", "setting": "[2]; Conc. 1 (µM per method)", "result": "24,1184%"},
      {"measurement": "Cell viability percentage, MCF-7", "setting": "[2]; Conc. 5 (µM per method)", "result": "22,006%"},
      {"measurement": "Cell viability percentage, MCF-7", "setting": "[2]; Conc. 10 (µM per method)", "result": "22,1058%"},
      {"measurement": "Cell viability percentage, MCF-7", "setting": "[2]; Conc. 25 (µM per method)", "result": "19,5775%"},
      {"measurement": "Cell viability percentage, MCF-7", "setting": "[2]; Conc. 50 (µM per method)", "result": "18,1803%"},
      {"measurement": "IC50", "setting": "[2]; Homo sapiens, MCF7, read-out: IC50 MCF-7", "result": "15.43 ± 0.06", "unit": "µM"},
      {"measurement": "IC50", "setting": "[3]", "result": "6.75 ± 0.002", "unit": "µM"},
      {"measurement": "IC50", "setting": "[4]", "result": "1.01 ± 0.05", "unit": "µM"},
      {"measurement": "IC50", "setting": "[5]", "result": "34.9 ± 0.13", "unit": "µM"},
      {"measurement": "viability at 1 µM", "setting": "[6]", "result": 34.9, "unit": "%"},
      {"measurement": "viability at 5 µM", "setting": "[6]", "result": 33.9, "unit": "%"},
      {"measurement": "viability at 10 µM", "setting": "[6]", "result": 33.8, "unit": "%"},
      {"measurement": "viability at 25 µM", "setting": "[6]", "result": 29.8, "unit": "%"},
      {"measurement": "viability at 50 µM", "setting": "[6]", "result": 26.9, "unit": "%"},
      {"measurement": "Cell viability percentage, A549", "setting": "[7]; Conc. 1 (µM per method)", "result": "84,0927%"},
      {"measurement": "Cell viability percentage, A549", "setting": "[7]; Conc. 5 (µM per method)", "result": "69,8954%"},
      {"measurement": "Cell viability percentage, A549", "setting": "[7]; Conc. 10 (µM per method)", "result": "61,098%"},
      {"measurement": "Cell viability percentage, A549", "setting": "[7]; Conc. 25 (µM per method)", "result": "43,9195%"},
      {"measurement": "Cell viability percentage, A549", "setting": "[7]; Conc. 50 (µM per method)", "result": "23,0847%"},
      {"measurement": "IC50", "setting": "[7]; Homo sapiens, A549, read-out: IC50 A549", "result": "16.85 ± 0.05", "unit": "µM"},
      {"measurement": "IC50", "setting": "[8]", "result": "1.04 ± 0.077", "unit": "µM"},
      {"measurement": "IC50", "setting": "human α-amylase", "result": "1.18 ± 0.06", "unit": "µM"},
      {"measurement": "melting point", "result": "162 to 164", "unit": "°C"}
    ]}
  ]
}
